In patent publication US7166688B1, “Chelation compositions” (LidoChem, Inc., priority 2000, dated 2007):
One block for each molecule: values may come before it.

Tests used:
[1] = Iron chelation, clear solution / precipitate test; format: physicochemical; settings: for appearance of solution / precipitates: 500 ml water, 10 ml 1.8 M ferric nitrate, pH 10, 10 grams potassium phosphate
Method: A five percent chelated iron solution was prepared by blending 18 ml of water with 100 grams of a (10% Fe) ferric nitrate solution. Once in solution, 82 grams of the compound produced in Example 10 was added.
In 25 ml of water, 20 ml of a 1.8M ferric nitrate was added. Once in solution, 30 ml of the diethanolsuccinamide amino ethanol solution produced in Example 17 was added and the pH of the blend was adjusted to 9.2. Then 1 gram of potassium phosphate was added to the mixture.
Five drops of 1.8 M ferric nitrate were added to one liter of water and mechanically blended. Then 10 grams of potassium phosphate were added to the solution and allowed to form insoluble potassium salts.
In 400 ml of water, 20 ml of a 10% ferric nitrate solution were added, and 20 ml of the product from example 25 were added. With mechanical stirring, 40 grams of monopotassium phosphate was added the mix. The pH of the solution was then adjusted to 2 with HCl. The pH of the solution was then gradually raised with the addition of base to a pH of 10.
In 400 ml of water, 10 ml of 1.8 M ferric nitrate solution were added and 20 ml of the product from example 28 were added. With mechanical stirring, 20 grams of monopotassium phosphate was added to the mix. The pH of the solution was then adjusted to 2 with HCL. The pH of the solution was then gradually raised with the addition of Monoethanolamine to a pH of 10.
To a beaker containing one liter of water, 20 grams of potassium phosphate were added to form a clear solution.
Thirty grams of 1.8 M ferric nitrate were added to 100 ml of water. The pH of the solution was lowered to 4 with phosphorous acid, and then 5 grams of Potassium phosphate were then added to the blend. Later 30 ml of the solution produced in example 29 was added.
One hundred ml of the solution prepared in Example 41 was added to 500 ml of water and blended. 10 ml of 1.8-M ferric nitrate was then added to the mixture. […] The potassium salt of maleic acid was tested as a chelating agent.
In a separate flask 20 grams of maleic anhydride were blended in 500 ml of water. Potassium hydroxide was then added to the blend to raise the pH to 10. Later ten ml of 1.8M ferric nitrate was added to the mix and 10 grams of potassium phosphate was also blended in. […] The contents of the flask were then blended again while MEA was added to the mix.

[2] = Zinc chelation, clear solution / precipitate test; format: physicochemical
Method: In 25 ml of water 1 gram of zinc sulfate was added. Once the zinc sulfate was in solution, 30 ml of the N,N-diethanolsuccinamide amino ethanol solution produced in Example 17 was added and the pH of the blend was adjusted to 9.5. Then 1 gram of potassium phosphate was added tho the mixture.
In a separate flask 25 ml of water, 1 gram of zinc sulfate and 1 gram of potassium phosphate were blended together. Immediately a white precipitate formed.
(§1) In 400 ml of water, 20 ml of a 17% zinc nitrate solution were added and 60 ml of the product from example 28 were added. With mechanical stirring, 40 grams of monopotassium phosphate were added to the mix. The pH of the solution was then adjusted to 2 with HCl. The pH of the solution was then gradually raised with the addition of Monoethanolamine to a pH of 9.
A nine percent chelated zinc solution was prepared by blending 50 ml of water with 22.4 grams zinc oxide. Concentrated HCl was added until the solution was clear. Once in solution, 125 grams of the compound produced in Example 10 was added. […] This chelated zinc solution is suitable for blending with phosphorus fertilizers 2-ethanolaminesuccinic-N-ethanolsuccinicamide (tri potassium salt) has the following formula: […]
Ten ml of 17% zinc solution were added to a liter of water. Later 20 grams of potassium phosphate were added and dissolved. Zinc phosphate formed a precipitate. Phosphorous acid was then added to lower the pH and clear the solution. Once clear 30 ml of the solution prepared in example 35 was added. This acidic solution, which was acidic, then remained undisturbed for a day, after which the pH was adjusted to 10 with the addition of MEA.

[3] = Copper chelation, clear solution / precipitate test; format: physicochemical; settings: five percent chelated copper solution: 19 grams basic copper sulfate in 100 ml water, HCl, 71 grams compound; pH of 5
Method: A five percent chelated copper solution was prepared by blending 19 grams of basic copper sulfate in 100 ml of water. Concentrated HCl was added to solubilize the copper. Once in solution, 71 grams of the compound produced in Example 10 was added. […] This chelated copper solution is suitable for blending with phosphorus fertilizers.
In 250 ml of water 1 gram of copper sulfate was added and mechanically stirred. To this solution, 10 ml of the diethanolsuccinamide-amino ethanol solution produced in Example 17 was added. The pH of the blend was adjusted to 8.4 and 1 gram of potassium phosphate was added the mixture.
In another flask, 1 gram of copper sulfate was added to 250 ml of water and mechanically blended. Then, 1 gram of potassium phosphate was added to the blend. The pH of the solution was adjusted with potassium hydroxide. Immediately a powder solid was formed and precipitated. The hydroxide and phosphate salts of copper were formed.
as §1, with “water, 1 gram” for “water, 20 ml”, “of copper sulfate was” for “of a 17% zinc nitrate solution were”, “and 10” for “and 60”, “stirring, 20” for “stirring, 40”
Two grams of basic copper sulfate were added to 200 ml of water. […]

[4] = Manganese chelation, clear solution / precipitate test; format: physicochemical; settings: five percent chelated manganese solution: 18 ml water, 58 grams (17% Mn) manganese nitrate solution, 82 grams compound; pH of 5
Method: In 25 ml of water 10 ml of a manganese nitrate solution was added. Once the manganese nitrate was in solution, 30 ml of the N,N-diethanolsuccinamide amino ethanol solution produced in Example 17 was added to the mixture and the pH of the blend was adjusted to 6. Then 1 gram of potassium phosphate was added to the mixture.
A five percent chelated manganese solution was prepared by blending 18 ml of water with 58 grams of a (17% Mn) manganese nitrate solution. Once the manganese nitrate was in solution, 82 grams of the compound produced in Example 10 was added. […] This chelated manganese solution is suitable for blending with phosphorus fertilizers.

Clover [5] = experiment: Foliar applied IDS chelated minerals, tissue analysis, clover; format: in vivo
Method: (§2) An experimental trial was completed testing the efficacy of the Iminodisuccinates (IDS) of this invention on five different crops. Below is the protocol and tissue analysis for both soil and foliar applied iminodisuccinate chelated mineral salts.
(§3) A stock solution for foliar application was prepared by blending 6000 ml of water with T-DAT 09, (Harcross Chemical Company, USA) a surfactant, added to spray mix at 2 drops per liter. • 1). 5 ml of 9% zinc was added to 1 liter of stock solution. • 2). 5 ml of 5% copper was added to 1 liter of stock solution. • 3). 5 ml of 5% manganese was added to 1 liter of stock solution. • 4). 5 ml of 5% Iron was added to 1 liter of stock solution. • 5). 4 ml of 9% zinc, 1 ml of 5% copper, 1 ml of 5% manganese, and 1 ml of 5% iron was added to 1 liter of stock solution. • 6). Stock solution without further addition.
(§4) All plants were sprayed until wet. Harvested material was placed in an oven for one day and sent to the lab for tissue analysis. Harvesting occurred thirty days after planting and some plants had not grown enough to get complete lab results reported. The harvested corn plants were cut at the whirl to insure only new leaves would be tested. The soybeans were clipped above the cotyledon. The alfalfa and clover were removed from the soil and the roots were removed. The wheat was cut at the tillering node.

Wheat [6] = experiment: Foliar applied IDS chelated minerals, tissue analysis, wheat; format: in vivo
Method: as §2, §3, §4

Clover [7] = experiment: Soil applied IDS chelated minerals with 10-34-0, tissue analysis, clover; format: in vivo
Method: as §2
(§5) A). The control pots were watered without any further treatments.
(§6) B). An ammonium polyphosphate stock solution was prepared by adding 50 ml of the 10-34-0 to 4000 ml of water. Treated plants received 100 ml of the stock solution.
(§7) (C). The Zinc stock solution was prepared by blending 10 ml of IDS chelated 9% Zinc to a blend of 50 ml of 10-34-0 with 4000 ml of water. Treated plants received 100 ml of the zinc stock solution.
(§8) (D). The mixture of IDS chelated micronutrients was prepared by adding 4 ml of 9% Zinc, 1 ml of 5% Copper, 1 ml of 5% manganese, and 1 ml of 5% Iron. This mixture was then blended with 4000 ml of water and 50 ml of 10-34-0.
as §4

Corn [8] = experiment: Foliar applied IDS chelated minerals, tissue analysis, corn; format: in vivo
Method: as §2, §3, §4

Soybean [9] = experiment: Foliar applied IDS chelated minerals, tissue analysis, soybeans; format: in vivo
Method: as §2, §3, §4

Wheat [10] = experiment: Soil applied IDS chelated minerals with 10-34-0, tissue analysis, wheat; format: in vivo
Method: as §2, §5, §6, §7, §8, §4

Soybean [11] = experiment: Soil applied IDS chelated minerals with 10-34-0, tissue analysis, soybeans; format: in vivo
Method: as §2, §5, §6, §7, §8, §4

Corn [12] = experiment: Soil applied IDS chelated minerals with 10-34-0, tissue analysis, corn; format: in vivo
Method: as §2, §5, §6, §7, §8, §4

Molecule: O=C([O-])CC(C(=O)[O-])N(CCO)C(CC(=O)[O-])C(=O)[O-].[K+].[K+].[K+].[K+] (stereo not shown) [Example 41, N,N-disuccinic-amino-ethanol tetra potassium salt]
appearance of solution / precipitates [1]: orange-red clear solution without precipitates

Molecule: O=C([O-])CC(C(=O)[O-])N(CCO)C(CC(=O)[O-])C(=O)[O-].[K+].[K+].[K+].[K+] (stereo not shown) [Example 35, N,N-disuccinic-amino-ethanol tetra potassium salt]
appearance of solution / precipitates ([2]; 10 ml 17% zinc solution and 20 grams potassium phosphate in a liter of water, phosphorous acid, 30 ml solution, after a day pH 10 with MEA): remained clear, free of precipitates, and colorless | redissolution of precipitated ferric phosphate ([1]; 20 grams potassium phosphate and 10 grams 1.8 M ferric solution in one liter water, 2.4 grams of the 0.75 M solution added): a clear yellow solution was produced inmediately

appearance of finished solution / precipitates [3]: free of precipitates | appearance of finished solution / precipitates ([2]; nine percent chelated zinc solution: 22.4 grams zinc oxide in 50 ml water, HCl, 125 grams compound, pH of 5): clear and free of precipitates | appearance of finished solution / precipitates ([1]; five percent chelated iron solution: 18 ml water, 100 grams (10% Fe) ferric nitrate solution, 82 grams compound, pH of 5): clear and free of precipitates | appearance of finished solution / precipitates [4]: clear and free of precipitates
Molecule: 2-ethanolaminesuccinic-N-ethanolsuccinicamide [Example 10]

Molecule: NCCO [MEA, monoethanolamine, reference compound]
redissolution of the precipitate on adding MEA ([1]; MEA added to the potassium maleate / ferric nitrate / potassium phosphate mix at pH 10): The precipitate never went back into solution

Molecule: ZINC
zinc in plant tissue, TREATED (Clover [5]; harvested 30 days after planting, control 56.7): 1264 parts per million | zinc in plant tissue, CHANGE (Clover [5]; treated minus control 56.7): 1207.3 parts per million | zinc in plant tissue, TREATED (Wheat [6]; harvested 30 days after planting, control 44.3): 563 parts per million | zinc in plant tissue, CHANGE (Wheat [6]; treated minus control 44.3): 518.7 parts per million | zinc in plant tissue, TREATED (Clover [7]; soil applied with 10-34-0, harvested 30 days after planting, control 53.4): 231 | zinc in plant tissue, CHANGE (Clover [7]; soil applied, treated minus control 53.4): 177.6 | zinc in plant tissue, % change (Clover [7]; soil applied, versus control 53.4): 333% | zinc in plant tissue, TREATED (Corn [8]; harvested 30 days after planting, control 15.6): 792 parts per million | zinc in plant tissue, CHANGE (Corn [8]; treated minus control 15.6): 776.4 parts per million | zinc in plant tissue, % change (Corn [8]; versus control 15.6): 4977% | zinc in plant tissue, TREATED (Soybean [9]; harvested 30 days after planting, control 63.8): 1000 parts per million | zinc in plant tissue, CHANGE (Soybean [9]; treated minus control 63.8): 936.2 parts per million | zinc in plant tissue, % change (Soybean [9]; versus control 63.8): 1467% | zinc in plant tissue, TREATED (Wheat [10]; soil applied with 10-34-0, harvested 30 days after planting, control 39): 93.1 | zinc in plant tissue, CHANGE (Wheat [10]; soil applied, treated minus control 39): 54.1 | zinc in plant tissue, % change (Wheat [10]; soil applied, versus control 39): 139% | zinc in plant tissue, TREATED (Soybean [11]; soil applied with 10-34-0, harvested 30 days after planting, control 19.4): 136 | zinc in plant tissue, CHANGE (Soybean [11]; soil applied, treated minus control 19.4): 116.6 | zinc in plant tissue, % (Soybean [11]; soil applied, versus control 19.4): 601% | zinc in plant tissue, TREATED (Corn [12]; soil applied with 10-34-0, harvested 30 days after planting, control 24): 69.6 | zinc in plant tissue, CHANGE (Corn [12]; soil applied, treated minus control 24): 45.6 | zinc in plant tissue, % (Corn [12]; soil applied, versus control 24): 190%

appearance of solution / precipitates [1]: a rust colored solid precipitated
Molecule: O=C([O-])/C=C\C(=O)[O-].[K+].[K+] [potassium salt of maleic acid, reference compound]
